# Laboratory results from patent US20050282830A1, “Use of dipyridamole or mopidamole for treatment and prevention of MMP-9-dependent disorders” (Boehringer Ingelheim International GmbH, priority 2003, published 2005).
# What was measured:
# [1] = test system: matrix metalloproteinase-9 (MMP-9); experiment: Inhibition of MMP-9 gene expression/synthesis in platelet-monocyte aggregates adherent to collagen type I; assay type: cell-based, Human; settings: adhered to collagen type I for 18 hours, 9 independent experiments
# Description: Inhibition of MMP-9 Gene Expression in Platelet-Monocyte Aggregates by the Dipyridamole Component of Aggrenox® (AGG)
# Aggrenox® (AGG) is a fixed dosed combination of extended-release dipyridamole (DIP) and aspirin (ASA). AGG is recommended in the protection of secondary stroke and transient ischemic attacks. It also increases tissue perfusion in patients with stable angina or Raynaud's disease. It was determined if AGG blocked the synthesis of inflammatory genes produced by platelet-monocyte aggregates.
# Human platelets and monocytes were pretreated with Dipyridamole (DIP) (5 μg/ml), ASA (625 ng/ml), or a DIP/ASA mixture (AGG); 5 μg/ml: 625 ng/ml, an 8:1 ratio of DIP/ASA). The cells were adhered to collagen type I. Synthesis of matrix metalloproteinase-9 (MMP-9) was determined. […] AGG and DIP reduced MMP-9 expression (53%, 61%, and a 17% reduction in MMP-9 synthesis compared to untreated cells for AGG, DIP, and ASA, respectively; results shown in FIG. 1). The inhibitory actions of AGG on gene expression are due to the DIP component of this |drug|.
# FIG. 1: The Dipyridamole component of Aggrenox attenuates MMP-9 synthesis by monocytes (monos) adherent to platelets (pits) and collagen. […] The cells were subsequently adhered to Collagen Type 1 for 18 hours and MMP-9 expression was measured. […]
# [2] = ESPS-2; compared with aspirin; cited from earlier work
SMILES,reduction in MMP-9 synthesis compared to untreated cells ([1]; human platelets and monocytes pretreated 15 minutes with 625 ng/ml) [%],reduction of stroke risk [2],reduction in MMP-9 synthesis compared to untreated cells ([1]; human platelets and monocytes pretreated 15 minutes with 5 μg/ml) [%]
"CC(=O)Oc1ccccc1C(=O)O [ASA, acetylsalicalic acid]",17,–,–
"OCCN(CCO)c1nc(N2CCCCC2)c2nc(N(CCO)CCO)nc(N3CCCCC3)c2n1 [DIP, 2,6-bis(diethanolamino)-4,8-dipiperidino-pyrimido[5,4-d]pyrimidine]",–,as effective as low-dose aspirin,61
